Measured values as given in patent US4482553A, “Benzothienylglycyl cephalosporin derivatives” (priority 1983, dated 1984).
Values after ≈ are worked out from the molar mass of the structure shown. Read-outs that look alike come from different tables or passages of the source.

Assays:
Assay type in all cases: cell-based
[1] = system: Staph. aureus; experiment: standard in vitro agar dilution MIC (Table I), Staph. aureus; conditions: Staphylococcus aureus
[2] = system: Staph. epi; experiment: standard in vitro agar dilution MIC (Table I), Staph. epi; conditions: Table I, agar dilution, read-out: MIC
[3] = system: Strep. A; experiment: standard in vitro agar dilution MIC (Table I), Strep. A; conditions: Table I, agar dilution, strain C203; read-out: MIC
[4] = system: Strep. PN; experiment: standard in vitro agar dilution MIC (Table I), Strep. PN; conditions: strain PARK, read-out: MIC
[5] = system: Strep. D; experiment: standard in vitro agar dilution MIC (Table I), Strep. D
[6] = system: H. influ.; experiment: standard in vitro agar dilution MIC (Table I), H. influ.
Description: (§1) The antibacterial activity of several compounds of the invention has been determined in standard in vitro agar dilution assays against a variety of gram positive and gram negative microorganisms. The following Tables present typical minimum inhibitory concentrations (MIC's) in μg/ml for several compounds of the invention when evaluated against the indicated microorganisms. MIC's for several known compounds are also presented for comparison.

[7] = system: E. coli; experiment: standard in vitro agar dilution MIC (Table I), E. coli; conditions: Escherichia coli
[8] = system: Klebsiella; experiment: standard in vitro agar dilution MIC (Table I), Klebsiella
[9] = system: Staph. epi; experiment: Expanded Spectrum MIC (Table II), Staph. epi
Description: as §1

[10] = system: Staph. aureus; experiment: Expanded Spectrum MIC (Table II), Staph. aureus; conditions: Staphylococcus aureus
Description: as §1

[11] = system: H. influ.; experiment: Expanded Spectrum MIC (Table II), H. influ.
Description: as §1

[12] = Klebsiella, Table I, agar dilution, strain X26, read-out: MIC

For `CC1=C(C(=O)O)N2C(=O)C(NC(=O)[C@H](N)c3cc4c(Cl)cccc4s3)C2SC1` (stereo partly drawn) [Ex. 7A, D-7-(4-chloro-2-benzothienylglycylamido)-3-methyl-3-cephem-4-carboxylic acid], the MIC ([1]; strain V41, read-out: MIC) was 2 mg/L (≈ 4.57 µM), the MIC ([1]; strain X1.1, read-out: MIC) was 0.5 mg/L (≈ 1.14 µM) and the MIC ([1]; strain X400, read-out: MIC) was 32 mg/L (≈ 73.1 µM). For the same molecule, the MIC ([2]; strain 222) was 1 mg/L (≈ 2.28 µM), the MIC ([2]; strain EPI1) was 2 mg/L (≈ 4.57 µM) and the MIC [3] was 0.25 mg/L (≈ 0.571 µM). It also gave an MIC [4] of 0.5 mg/L (≈ 1.14 µM), an MIC ([5]; strain 2041, read-out: MIC) of 32 mg/L (≈ 73.1 µM) and an MIC ([5]; strain X66, read-out: MIC) of 32 mg/L (≈ 73.1 µM). It also gave an MIC ([6]; strain 76, read-out: MIC) of 4 mg/L (≈ 9.13 µM), an MIC ([7]; strain EC14) greater than 128 mg/L and an MIC ([7]; strain N10) greater than 128 mg/L. It also gave an MIC ([7]; strain TEM) greater than 128 mg/L, an MIC ([8]; Klebsiella, Table I, agar dilution, strain KAE, read-out: MIC) greater than 128 mg/L and an MIC [8, 12] of 8 mg/L (≈ 18.3 µM). For the same molecule, the MIC ([8]; Klebsiella, Table I, agar dilution, strain X68, read-out: MIC) was greater than 128 mg/L, the MIC ([9]; strain 219, read-out: MIC) was 0.5 mg/L (≈ 1.14 µM) and the MIC ([9]; strain 269, read-out: MIC) was 1 mg/L (≈ 2.28 µM). The MIC ([9]; strain 270, read-out: MIC) was 2 mg/L (≈ 4.57 µM), the MIC ([9]; strain 285, read-out: MIC) was 1 mg/L (≈ 2.28 µM) and the MIC ([9]; strain 286, read-out: MIC) was 0.25 mg/L (≈ 0.571 µM). The MIC ([9]; strain EPI1, read-out: MIC) was 4 mg/L (≈ 9.13 µM), the MIC ([10]; strain 239, read-out: MIC) was 0.5 mg/L (≈ 1.14 µM) and the MIC ([10]; strain S224, read-out: MIC) was 0.5 mg/L (≈ 1.14 µM). The MIC ([10]; strain S225, read-out: MIC) was 0.5 mg/L (≈ 1.14 µM), the MIC ([10]; strain S226, read-out: MIC) was 0.5 mg/L (≈ 1.14 µM) and the MIC ([10]; strain S227, read-out: MIC) was 0.5 mg/L (≈ 1.14 µM). For the same molecule, the MIC ([10]; strain S228, read-out: MIC) was 0.5 mg/L (≈ 1.14 µM), the MIC ([10]; strain S229, read-out: MIC) was 0.5 mg/L (≈ 1.14 µM) and the MIC ([10]; strain S230, read-out: MIC) was 0.5 mg/L (≈ 1.14 µM). The MIC ([10]; strain S231, read-out: MIC) was 0.25 mg/L (≈ 0.571 µM), the MIC ([10]; strain S234, read-out: MIC) was 0.5 mg/L (≈ 1.14 µM) and the MIC ([10]; strain S237, read-out: MIC) was 0.5 mg/L (≈ 1.14 µM). It also gave an MIC ([10]; strain S238, read-out: MIC) of 0.5 mg/L (≈ 1.14 µM), an MIC ([11]; strain 76, read-out: MIC) of 16 mg/L (≈ 36.5 µM) and an MIC ([11]; strain 158, read-out: MIC) of 8 mg/L (≈ 18.3 µM). The MIC ([11]; strain 169, read-out: MIC) was 8 mg/L (≈ 18.3 µM), the MIC ([11]; strain 312, read-out: MIC) was 16 mg/L (≈ 36.5 µM) and the MIC ([11]; strain 1683, read-out: MIC) was 4 mg/L (≈ 9.13 µM). The MIC ([11]; strain 1930, read-out: MIC) was 16 mg/L (≈ 36.5 µM), the MIC ([11]; strain 4842, read-out: MIC) was 8 mg/L (≈ 18.3 µM) and the MIC ([11]; strain C.L., read-out: MIC) was 32 mg/L (≈ 73.1 µM). The MIC ([11]; strain HESS, read-out: MIC) was 32 mg/L (≈ 73.1 µM), the MIC ([11]; strain M366, read-out: MIC) was 32 mg/L (≈ 73.1 µM) and the MIC ([11]; strain R465, read-out: MIC) was 16 mg/L (≈ 36.5 µM). For the same molecule, the MIC ([11]; strain STEL, read-out: MIC) was 32 mg/L (≈ 73.1 µM).
For `COc1c([C@@H](N)C(=O)NC2C(=O)N3C(C(=O)O)=C(C)CSC23)sc2ccccc12` (stereo partly drawn) [Ex. 9A, D-7-(3-methoxy-2-benzothienylglycylamido)-3-methyl-3-cephem-4-carboxylic acid], the MIC ([1]; strain S13E) was 64 mg/L (≈ 148 µM), the MIC ([1]; strain V41, read-out: MIC) was 64 mg/L (≈ 148 µM) and the MIC ([1]; strain X1.1, read-out: MIC) was 4 mg/L (≈ 9.23 µM). For the same molecule, the MIC ([1]; strain X400, read-out: MIC) was greater than 128 mg/L, the MIC ([2]; strain 222) was 8 mg/L (≈ 18.5 µM) and the MIC ([2]; strain EPI1) was 32 mg/L (≈ 73.8 µM). For the same molecule, the MIC [3] was 1 mg/L (≈ 2.31 µM), the MIC [4] was 4 mg/L (≈ 9.23 µM) and the MIC ([5]; strain 2041) was 128 mg/L (≈ 295 µM). For the same molecule, the MIC ([5]; strain X66) was greater than 128 mg/L, the MIC ([6]; strain 76, read-out: MIC) was 32 mg/L (≈ 73.8 µM) and the MIC ([6]; strain C.L., read-out: MIC) was 64 mg/L (≈ 148 µM). It also gave an MIC ([7]; strain EC14) of 128 mg/L (≈ 295 µM), an MIC ([7]; strain N10) greater than 128 mg/L and an MIC ([7]; strain TEM) greater than 128 mg/L. The MIC ([8]; Klebsiella) was greater than 128 mg/L, the MIC [8, 12] was 32 mg/L (≈ 73.8 µM) and the MIC ([8]; Table I, agar dilution, strain X68) was greater than 128 mg/L. It also gave an MIC ([9]; strain 219, read-out: MIC) of 0.25 mg/L (≈ 0.577 µM), an MIC ([9]; strain 269, read-out: MIC) of 1 mg/L (≈ 2.31 µM) and an MIC ([9]; strain 270, read-out: MIC) of 1 mg/L (≈ 2.31 µM). It also gave an MIC ([9]; strain 285, read-out: MIC) of 0.5 mg/L (≈ 1.15 µM), an MIC ([9]; strain 286, read-out: MIC) of 0.25 mg/L (≈ 0.577 µM) and an MIC ([9]; strain EPI1, read-out: MIC) of 4 mg/L (≈ 9.23 µM). For the same molecule, the MIC ([10]; strain 239, read-out: MIC) was 0.5 mg/L (≈ 1.15 µM), the MIC ([10]; strain S224, read-out: MIC) was 0.25 mg/L (≈ 0.577 µM) and the MIC ([10]; strain S225, read-out: MIC) was 0.25 mg/L (≈ 0.577 µM). The MIC ([10]; strain S226, read-out: MIC) was 0.5 mg/L (≈ 1.15 µM), the MIC ([10]; strain S227, read-out: MIC) was 0.25 mg/L (≈ 0.577 µM) and the MIC ([10]; strain S228, read-out: MIC) was 0.25 mg/L (≈ 0.577 µM). It also gave an MIC ([10]; strain S229, read-out: MIC) of 0.5 mg/L (≈ 1.15 µM), an MIC ([10]; strain S230, read-out: MIC) of 0.25 mg/L (≈ 0.577 µM) and an MIC ([10]; strain S231, read-out: MIC) of 0.25 mg/L (≈ 0.577 µM). It also gave an MIC ([10]; strain S234, read-out: MIC) of 0.5 mg/L (≈ 1.15 µM), an MIC ([10]; strain S237, read-out: MIC) of 0.5 mg/L (≈ 1.15 µM) and an MIC ([10]; strain S238, read-out: MIC) of 1 mg/L (≈ 2.31 µM).
